# Results published in patent publication US4764433A, “Agent for the protection of materials” (Bayer Aktiengesellschaft, priority 1985, dated 1988).
# Key:
# [1] = tested on: Aspergillus niger; assay: MIC against fungi (agar, beer wort and peptone); format: cell-based; details: 336 h, 2 weeks at 28° C., 60 to 70% relative humidity, read-out: MIC values when substances according to the invention act on fungi
# Protocol: (§1) Compounds according to the invention are added, in concentrations of 0.1 mg/l to 5,000 mg/l, to an agar prepared from beer wort and peptone.
# [2] = tested on: Chaetomium globosum; assay: MIC against fungi (agar, beer wort and peptone); format: cell-based; details: 336 h, 2 weeks at 28° C., 60 to 70% relative humidity, read-out: MIC values when substances according to the invention act on fungi
# Protocol: as §1
# [3] = tested on: Penicillium glaucum; assay: MIC against fungi (agar, beer wort and peptone); format: cell-based; details: 336 h, 2 weeks at 28° C., 60 to 70% relative humidity, read-out: MIC values when substances according to the invention act on fungi
# Protocol: as §1
# [4] = tested on: Phytophthora infestans; format: in vivo; details: for % attack at an active compound concentration of 10 ppm: tomato plants, protective; for fungicidal properties for plant protection: phytophthora test [tomatoes], sulphamides compared with N-sulphenylated benzenesulphonamides according to the invention
# [5] = tested on: Alternaria tenuis; assay: MIC against fungi (agar, beer wort and peptone); format: cell-based; details: Alternaria alternata, 336 h, 2 weeks at 28° C., 60 to 70% relative humidity, read-out: MIC values when substances according to the invention act on fungi
# Protocol: as §1
# [6] = tested on: Aureobasidium pullulans; assay: MIC against fungi (agar, beer wort and peptone); format: cell-based; details: 336 h, 2 weeks at 28° C., 60 to 70% relative humidity, read-out: MIC values when substances according to the invention act on fungi
# Protocol: as §1
# [7] = tested on: Coniophora puteana; assay: MIC against fungi (agar, beer wort and peptone); format: cell-based; details: 336 h, 2 weeks at 28° C., 60 to 70% relative humidity, read-out: MIC values when substances according to the invention act on fungi
# Protocol: as §1
# [8] = tested on: Lentinus tigrinus; assay: MIC against fungi (agar, beer wort and peptone); format: cell-based; details: 336 h, 2 weeks at 28° C., 60 to 70% relative humidity, read-out: MIC values when substances according to the invention act on fungi
# Protocol: as §1
# [9] = tested on: Polyporus versicolor; assay: MIC against fungi (agar, beer wort and peptone); format: cell-based; details: Trametes versicolor, 336 h, 2 weeks at 28° C., 60 to 70% relative humidity, read-out: MIC values when substances according to the invention act on fungi
# Protocol: as §1
# [10] = tested on: Sclerophoma pityophila; assay: MIC against fungi (agar, beer wort and peptone); format: cell-based; details: Sydowia polyspora, 336 h, 2 weeks at 28° C., 60 to 70% relative humidity, read-out: MIC values when substances according to the invention act on fungi
# Protocol: as §1
# [11] = tested on: Coniophora puteana; assay: Limiting toxic values (toxicity limits) on pinewood; details: 6 weeks at 21° to 23° C.; concentrations at which timber still attacked - no longer attacked
# Protocol: (§2) Determination of the limiting toxic values (kg/m^3 of timber) of active compounds according to the invention for Coniophora puteana and Polyporus versicolor on pinewood and beechwood, respectively.
# (§3) The limiting toxic values are determined by a method modelled on the method described by H. P. Sutter, Int. Biodeterioration Bulletin, 14 (3), 1978, pages 95 to 99.
# (§4) For each test, freshly cut, thin pieces of cross-cut timber (dimensions 40×40 mm, thickness about 2 mm) are impregnated in vacuo with solutions of varying concentrations of active compounds. In each case one concentration of active compound is used to impregnate 15 timber samples simultaneously. 5 of these are in each case used at the same time for a mycological test.
# (§5) The amount of active compound absorbed is determined from the retention of solvent (determined by weighing the small piece of timber before and after impregnation), the density of the timber and the concentration of the active compound in the residual impregnating solution.
# (§6) Before the mycological test, the test specimens are sterilized with propylene oxide and in each case 1 test specimen is brought into contact in a Petri dish with the fully developed mycellium of the test fungus on malt extract agar. The toxicity limits are determined visually after 6 weeks at 21° to 23° C.
# (§7) The toxicity limits ([…] of timber) for substances according to the invention are shown in the table below; the toxicity limits indicate the concentrations at which the timber is still attacked and at which the timber is no longer attacked.
# [12] = tested on: Polyporus versicolor; assay: Limiting toxic values (toxicity limits) on beechwood; details: 6 weeks at 21° to 23° C.; concentrations at which timber still attacked - no longer attacked
# Protocol: as §2, §3, §4, §5, §6, §7
# [13] = tested on: slime organisms; assay: Action against slime organisms, MIC in Allen's nutrient solution; format: cell-based; details: 504 h, approx. 10^6 microbes/ml, 3 weeks at room temperature, read-out: MIC in mg/l when the substances act on slime organisms
# Protocol: Substances according to the invention, dissolved in a little acetone, are used in concentrations of 0.1 to 100 mg/l in a particular case in Allen's nutrient solution (Arch. Mikrobiol., 17, 34 to 53 (1952)), containing, in 4 l of sterile water, 0.2 g of ammonium chloride, 4.0 g of sodium nitrate, 1.0 g of dipotassium hydrogen phosphate, 0.2 g of calcium chloride, 2.05 g of magnesium sulphate, 0.02 g of iron chloride and 1% of caprolactam. Shortly beforehand, the nutrient solution is infested with slime organisms (approx. 10^6 microbes/ml) which have been isolated from circulating spinning water used in the production of polyamide.
# [14] = cited from earlier work
SMILES,MIC [1] [mg/L],MIC [2] [mg/L],MIC [3] [mg/L],% attack at an active compound concentration of 10 ppm [4] [%],MIC [5] [mg/L],MIC [6] [mg/L],MIC [7] [mg/L],MIC [8] [mg/L],MIC [9] [mg/L],MIC [10] [mg/L],"Toxicity Limits, Coniophora puteana on pinewood [11]","Toxicity Limits, Polyporus versicolor on beechwood [12]",MIC [13] [mg/L],fungicidal properties for plant protection [4],solubility in the formulating agents customary for timber preservatives [14]
CN(SC(F)(Cl)Cl)S(=O)(=O)c1ccccc1 [Example 24],5,3.5,5,–,–,–,–,–,–,–,–,–,–,–,–
Cc1ccc(N(SC(F)(Cl)Cl)S(=O)(=O)N(C)C)cc1 [drawing 13],–,–,–,14,–,–,–,–,–,–,–,–,–,–,–
Cc1ccc(S(=O)(=O)N(C)SC(F)(Cl)Cl)cc1C [Example 17],10,3.5,10,–,–,–,–,–,–,–,–,–,–,–,–
CN(SC(F)(Cl)Cl)S(=O)(=O)c1ccc(Cl)c(Cl)c1 [Example 25],20,7.5,10,–,–,–,–,–,–,–,–,–,–,–,–
CCN(SC(F)(Cl)Cl)S(=O)(=O)c1ccc(Cl)cc1 [Example 6],10,35,10,–,20,10,0.75,0.5,1,7.5,–,–,–,–,–
CN(SC(F)(Cl)Cl)S(=O)(=O)c1ccc(Cl)c([N+](=O)[O-])c1 [Example 26],50,20,20,–,–,–,–,–,–,–,–,–,–,–,–
COCCCN(SC(F)(Cl)Cl)S(=O)(=O)c1ccc(C)cc1 [Example 22],20,5,35,–,–,–,–,–,–,–,–,–,–,–,–
Cc1ccc(C)c(S(=O)(=O)N(C)SC(F)(Cl)Cl)c1 [Example 19],10,< 2,20,–,100,35,7.5,100,100,10,0.24-0.72 kg/m^3 of timber,1.07-1.76 kg/m^3 of timber,–,–,–
CN(SC(F)(Cl)Cl)S(=O)(=O)c1cccc([N+](=O)[O-])c1 [Example 27],20,20,20,–,–,–,–,–,–,–,–,–,–,–,–
Cc1ccc(S(=O)(=O)N(C)SC(F)(Cl)Cl)cc1[N+](=O)[O-] [Example 8],20,15,20,–,5,5,0.75,5,7.5,5,–,–,–,–,–
CCCCN(SC(F)(Cl)Cl)S(=O)(=O)c1ccccc1 [Example 3],–,–,–,–,–,–,–,–,–,–,0.25-0.76 kg/m^3 of timber,0.63-1.29 kg/m^3 of timber,–,–,–
CCN(SC(F)(Cl)Cl)S(=O)(=O)c1ccccc1 [Example 2],10,< 2,10,–,–,–,–,–,–,–,0.24-0.74 kg/m^3 of timber,1.4-2.4 kg/m^3 of timber,≤ 2,–,–
CN(C)S(=O)(=O)N(SC(F)(Cl)Cl)c1ccccc1 [drawing 12],–,–,–,19,–,–,–,–,–,–,–,–,–,–,–
"Cc1ccc(N(SC(F)(Cl)Cl)S(=O)(=O)N(C)C)cc1 [N,N-dimethyl-N'-(4-tolyl)-N'-dichlorofluoromethylthio-sulphamide]",–,–,–,–,–,–,–,–,–,–,–,–,–,considerably better fungicidal properties for plant protection,–
CCN(SC(F)(Cl)Cl)S(=O)(=O)c1ccc(C)cc1 [Example 4],10,7.5,20,–,10,3.5,0.3,0.5,0.5,3.5,0.65-1.3 kg/m^3 of timber,2.8-3.7 kg/m^3 of timber,–,–,–
CN(SC(F)(Cl)Cl)S(=O)(=O)c1ccc([N+](=O)[O-])cc1 [Example 14],20,20,20,–,35,5,3.5,5,10,3.5,0.26-0.79 kg/m^3 of timber,2.2-3.07 kg/m^3 of timber,–,–,–
CN(SC(F)(Cl)Cl)S(=O)(=O)c1cc(Cl)ccc1Cl [Example 28],20,35,15,–,–,–,–,–,–,–,–,–,–,–,–
"Cc1ccc(S(=O)(=O)N(C)SC(F)(Cl)Cl)cc1 [Example 1, N-fluorodichloromethylthio-N-methylamide of 4-toluenesulphonic acid]",10,3.5,10,–,20,5,0.5,5,2,5,0.22-0.65 kg/m^3 of timber,2.2-2.9 kg/m^3 of timber,≤ 2,–,–
"CN(C)S(=O)(=O)N(SC(F)(Cl)Cl)c1ccccc1 [B, N,N-dimethyl-N'-phenyl-N'-(fluorodichloromethylthio)-sulphamide, reference compound]",50,50,50,–,10,7.5,7.5,10,20,15,1.61-2.25 kg/m^3 of timber,2.23-2.81 kg/m^3 of timber,–,considerably better fungicidal properties for plant protection,very sparingly soluble
"O=C1c2ccccc2C(=O)N1SC(F)(Cl)Cl [A, N-fluorodichloromethylthiophthalimide, reference compound]",200,100,35,–,10,50,2,2,50,10,–,–,–,–,–
